Test results published in patent publication US20230417767A1, “COMPOSITIONS AND METHODS FOR THE DIAGNOSIS AND TREATMENT OF AGE-RELATED MACULAR DEGENERATION” (Georgetown University, priority 2016, published 2023).

Legend:
PGC-1α [1] = experiment: PGC-1α gene expression in retinal pigment epithelium (RPE); assay type: cell-based, human; conditions: FIG. 16A-C
Description: (§1) FIGS. 1-3 show various representations of an in vitro disease model of AMD. A total of 10 eyes from 5 organ donors clinically diagnosed with dry AMD and 10 eyes from 5 clinically normal donors were purchased from Lions Medical Eye Bank. RPE were isolated according to established protocols (Maminishkis et al., 2006) and cultured in Epithelial Cell Media (EpiCM, ScienCell) under controlled oxygen (5%) and CO2 (5%) conditions. Studies have shown that low (physiological) oxygen concentration promotes RPE growth (Knorr et al., 1993) and better protects from ROS-induced damage in vitro. RPE were then purified with Magnetic-Activated Cell Sorting (MACS) by positive selection for epithelial cells using anti-BEST1 antibody (Abcam) and anti-E-cadherin (Miltenyi Biotech); and by negative selection using a fibroblast-specific antibody (Miltenyi Biotech) to remove fibroblasts. The purity of the sorted cells was confirmed by immunostaining with anti-ZO-1 and anti-BEST1, and Real-Time PCR for RPE specific genes. The RPE cells were grown in Epithelial Cell Media (EpiCM, ScienCell) at 37° C., with 5% O2 and 5% CO2. […] Skin fibroblasts from a dry AMD patient were used to generate iPSC-RPE. Genotyping of the donors and the patient is represented in FIG. 3.
(§2) Quantitative Real-Time Polymerase Chain Reaction Analyses. […] Quantitative PCR was performed with the QuantiTect SYBR Green PCR Kit (Qiagen). […]

APOJ = APOJ expression in retina of mice fed high fat diet containing compound; assay type: in vivo; conditions: genotype (WT or HET) not stated; telmisartan 0.001% in high fat diet, 11 weeks; FIG. 23A
Procedure: (§3) Quantitative Real-Time Polymerase Chain Reaction Analyses. Total RNA was extracted with the RNeasy kit (Qiagen), treated with RNase-free DNase I (Qiagen), and reverse transcribed with oligo-dT using the SuperScript III cDNA synthesis kit (Invitrogen). Quantitative PCR was performed with the QuantiTect SYBR Green PCR Kit (Qiagen). Specific primers for each gene were designed with the PrimerQuest software (Integrated DNA Technologies), and the cDNA sequences of each gene (GenBank) were used to produce 100-250 bp PCR amplicons that span one or more exon/intron boundaries.
(§4) The HET mice described in Example 2 were administered various compounds to determine the effects of these compounds on the development of AMD. In the High Fat Diet (HFD) experiments, 5 wild type (WT) mice, 5 PGC-1α+/−mice, 5 PGC-1α−/−mice at 2 months old with C57BL/6 background were fed with regular diet (RD) or high fat diet for 16 weeks. […]
(§5) To test the effects of telmisartan, fenofibrate and UPF 1069 on mice, 5 wild type (WT) mice, 5 PGC-1α+/−mice, 5 PGC-1α−/−mice at 2 months old were administrated with RD, HFD, or HFD (Testdiet, 5015) containing one of the three compounds. […] 11 weeks after beginning of administration of the compounds, the mice were sacrificed, the body weight was measured, the eyes were enucleated, with the retinas being extracted and processed for RNA isolation. […]

APOE = APOE expression in retina of mice fed high fat diet containing compound; assay type: in vivo; conditions: compound in high fat diet (telmisartan, UPF 0.001%; fenofibrate 0.1%), 11 weeks, FIG. 22
Procedure: as §3, §4, §5

[2] = tested on: Acyl-CoA Dehydrogenase (ACADM); experiment: Acyl-CoA Dehydrogenase (ACADM) expression in RPE; assay type: cell-based, human; conditions: FIG. 16A-C
Description: as §1, §2

PGC-1α [3] = experiment: PGC-1α gene expression in mice fed high fat diet containing compound; assay type: in vivo; conditions: compound in high fat diet (telmisartan, UPF 0.001%; fenofibrate 0.1%), 11 weeks, FIG. 24
Procedure: as §3, §4, §5

APP = APP expression in retina of mice fed high fat diet containing compound; assay type: in vivo; conditions: compound in high fat diet (telmisartan, UPF 0.001%; fenofibrate 0.1%), 11 weeks, FIG. 21
Procedure: as §3, §4, §5

AMD RPE = experiment: Cell viability of AMD RPE under oxidative stress; assay type: cell-based, human; conditions: FIG. 16E-G
Procedure: RPE were cultured at 80-90% confluency in 96-well plates, at 37° C. with 5% O2 and 5% CO2. Oxidative stress was induced with different concentrations of H2O2 ranging from 0-10 mM for 24 or 48 hrs, followed by cell viability measurements. Cell viability was measured following a 30 min incubation with the PestoBlue Reagent (Life Technologies) of RPE monolayers cultured on 96-well plates, 6 wells used for each sample. Fluorescence measurements were performed using an Ultra384 plate reader with 535 nm excitation and 612 nm emission wavelengths.

AMPK = AMPK phosphorylation in RPE; assay type: cell-based, human; conditions: FIG. 16D
Description: as §1, with “Genotyping of the donors and the patient is represented in FIG. 3.” left out
Immunoblot analysis. […] Protein concentrations were measured by Bradford assay (Bio-Rad). Protein samples were analyzed using the NuPAGE electrophoresis and XCell Western blot system (Invitrogen). […]

APOB = APOB expression in retina of mice fed high fat diet containing compound; assay type: in vivo; conditions: PGC-1α+/− (HET) mice; compound in high fat diet (telmisartan, UPF 0.001%; fenofibrate 0.1%), 11 weeks; FIG. 20
Procedure: as §3, §4, §5

Row | Acyl-CoA Dehydrogenase (ACADM) expression ([2]; AMD RPE) | Acyl-CoA Dehydrogenase (ACADM) expression ([2]; normal (control) RPE) | Compound | PGC-1α expression (PGC-1α [1]; AMD RPE) | PGC-1α expression (PGC-1α [1]; normal (control) RPE) | APOJ levels (APOJ) | APOE levels in the retina (APOE; PGC-1α+/− (HET) mice) | APOE levels in the retina (APOE; WT mice) | PGC-1α expression (PGC-1α [3]; PGC-1α+/− (HET) mice) | PGC-1α expression (PGC-1α [3]; WT mice) | APP levels in the retina (APP; PGC-1α+/− (HET) mice) | APP levels in the retina (APP; WT mice) | cell viability under oxidative stress (AMD RPE) | AMPK phosphorylation (AMPK; AMD RPE) | AMPK phosphorylation (AMPK; normal (control) RPE) | APOB levels in the retina (APOB)
1 | increasing | increasing | CCCc1nc2c(C)cc(-c3nc4ccccc4n3C)cc2n1Cc1ccc(-c2ccccc2C(=O)O)cc1 [telmisartan] | increasing | increasing | did not reduce | significantly reduce | significantly reduce | significantly Increase | significantly increased | unable to decrease | significant increase | increasing | inducing | inducing | significantly reduce
2 | – | – | O=C(O)c1cc(C(=O)O)c2c(n1)C(=O)C(=O)c1cc(C(=O)O)[nH]c1-2 [PQQ, pyrroloquinoline quinone] | – | – | – | – | – | – | – | – | – | increasing | – | – | –
